Test results: the supplement of paper PMC10307832

Compound: COc1cc(-c2nn([C@H]3CC[C@H](N4CCN(C(C)=O)CC4)CC3)c3ncnc(N)c23)ccc1NC(=O)c1cc2ccccc2n1C + CS(=O)(=O)CCNCc1ccc(-c2ccc3ncnc(Nc4ccc(OCc5cccc(F)c5)c(Cl)c4)c3c2)o1 [Lapatinib] (partner 2 µM)
Assay: relative viability (nuclei count vs DMSO), 5 days (fraction); higher = more cells survive
Details: first compound 0.0128 µM
In short: (§1)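 One day after seeding in 1536-well plates, lung cancer cell lines were dosed by pin tool. Dosing was either single-drug or a fixed anchor-drug dose plus five library-drug doses (not always all listed) in √10 steps. After 5 days, nuclei were stained in one fix-and-stain step and counted on 4× images, and relative viability is the nuclei count of treated wells over that of vehicle wells, given as the median of duplicate plates.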

| Cell Line | relative viability |
| --- | --- |
| NCI-H727 | 0.804 |
| NCI-H1650 | 0.782 |
| EBC-1 | 0.203 |
| NCI-H1703 | 1.09 |
| NCI-H1993 | 0.853 |
| Calu-6 | 1.08 |
| IA-LM | 0.83 |
| A549 | 0.961 |
| NCI-H1299 | 0.997 |
| NCI-H1563 | 1.01 |
| ABC-1 | 1.26 |

Same assay, conditions: first compound 0.04048 µM

| Cell Line | relative viability |
| --- | --- |
| NCI-H1650 | 0.846 |
| EBC-1 | 0.23 |
| NCI-H1703 | 0.988 |
| NCI-H1993 | 0.811 |
| Calu-6 | 1.01 |
| IA-LM | 1.16 |
| A549 | 1.02 |
| NCI-H1299 | 1.11 |
| NCI-H1563 | 0.961 |
| ABC-1 | 1.17 |

Same assay, conditions: first compound 0.128 µM

| Cell Line | relative viability |
| --- | --- |
| NCI-H727 | 0.754 |
| NCI-H1650 | 0.69 |
| EBC-1 | 0.205 |
| NCI-H1703 | 0.842 |
| NCI-H1993 | 0.807 |
| Calu-6 | 0.91 |
| IA-LM | 0.79 |
| A549 | 0.953 |
| NCI-H1299 | 0.984 |
| NCI-H1563 | 0.822 |
| ABC-1 | 1.04 |

Same assay, conditions: first compound 1.28 µM

| Cell Line | relative viability |
| --- | --- |
| NCI-H727 | 0.718 |
| NCI-H1650 | 0.6 |
| EBC-1 | 0.19 |
| NCI-H1703 | 0.352 |
| NCI-H1993 | 0.812 |
| Calu-6 | 0.875 |
| IA-LM | 1.15 |
| A549 | 1.06 |
| NCI-H1299 | 1.04 |
| NCI-H1563 | 0.681 |
| ABC-1 | 0.891 |

Compound: COc1cc(-c2nn([C@H]3CC[C@H](N4CCN(C(C)=O)CC4)CC3)c3ncnc(N)c23)ccc1NC(=O)c1cc2ccccc2n1C + CC(=O)Nc1cccc(-n2c(=O)n(C3CC3)c(=O)c3c(Nc4ccc(I)cc4F)n(C)c(=O)c(C)c32)c1 [Trametinib] (partner 0.02 µM)
Assay: as above
Details: first compound 0.0128 µM
In short: as §1

| Cell Line | relative viability |
| --- | --- |
| NCI-H2342 | 0.92 |
| NCI-H727 | 0.415 |
| NCI-H1650 | 0.489 |
| NCI-H1993 | 0.504 |
| LCLC-103H | 0.717 |
| NCI-H1648 | 0.478 |
| ChaGo-K-1 | 0.872 |
| NCI-H522 | 0.77 |
| SW 900 | 1.05 |
| NCI-H441 | 0.438 |

Same assay, conditions: first compound 0.04048 µM

| Cell Line | relative viability |
| --- | --- |
| NCI-H2342 | 0.766 |
| NCI-H1650 | 0.448 |
| NCI-H1993 | 0.489 |
| LCLC-103H | 0.58 |
| NCI-H1648 | 0.311 |
| ChaGo-K-1 | 0.904 |
| NCI-H522 | 0.514 |
| SW 900 | 0.82 |
| NCI-H441 | 0.463 |

Same assay, conditions: first compound 0.128 µM

| Cell Line | relative viability |
| --- | --- |
| NCI-H2342 | 0.886 |
| NCI-H727 | 0.37 |
| NCI-H1650 | 0.586 |
| NCI-H1993 | 0.562 |
| LCLC-103H | 0.583 |
| NCI-H1648 | 0.386 |
| ChaGo-K-1 | 0.722 |
| NCI-H522 | 0.723 |
| SW 900 | 0.778 |
| NCI-H441 | 0.407 |

Same assay, conditions: first compound 1.28 µM

| Cell Line | relative viability |
| --- | --- |
| NCI-H2342 | 0.745 |
| NCI-H727 | 0.341 |
| NCI-H1650 | 0.452 |
| NCI-H1993 | 0.481 |
| LCLC-103H | 0.664 |
| NCI-H1648 | 0.293 |
| ChaGo-K-1 | 0.68 |
| NCI-H522 | 0.73 |
| SW 900 | 0.432 |
| NCI-H441 | 0.336 |

Compound: CO[C@@H]1[C@H](N(C)C(=O)c2ccccc2)C[C@H]2O[C@]1(C)n1c3ccccc3c3c4c(c5c6ccccc6n2c5c31)C(=O)NC4 [Midostaurin] + CS(=O)(=O)N1CCN(Cc2cc3nc(-c4cccc5[nH]ncc45)nc(N4CCOCC4)c3s2)CC1 [Pictilisib] (partner 1 µM)
Assay: as above
Details: first compound 0.01 µM
In short: as §1

| Cell Line | relative viability |
| --- | --- |
| NCI-H727 | 0.491 |
| NCI-H1650 | 0.616 |
| EBC-1 | 0.504 |
| NCI-H1703 | 0.276 |
| NCI-H1993 | 0.775 |
| LCLC-103H | 0.72 |
| Calu-6 | 0.876 |
| IA-LM | 0.405 |
| ChaGo-K-1 | 0.688 |
| A549 | 0.549 |
| NCI-H441 | 0.496 |
| NCI-H1299 | 0.838 |
| NCI-H1563 | 0.605 |
| ABC-1 | 0.795 |

Same assay, conditions: first compound 0.03162 µM

| Cell Line | relative viability |
| --- | --- |
| NCI-H727 | 0.301 |
| NCI-H1650 | 0.592 |
| EBC-1 | 0.272 |
| NCI-H1703 | 0.226 |
| NCI-H1993 | 0.817 |
| LCLC-103H | 0.541 |
| Calu-6 | 0.837 |
| ChaGo-K-1 | 1.24 |
| A549 | 0.446 |
| NCI-H441 | 0.434 |
| NCI-H1299 | 0.73 |
| NCI-H1563 | 0.722 |
| ABC-1 | 0.639 |

Same assay, conditions: first compound 0.1 µM

| Cell Line | relative viability |
| --- | --- |
| NCI-H727 | 0.378 |
| NCI-H1650 | 0.657 |
| EBC-1 | 0.294 |
| NCI-H1703 | 0.245 |
| NCI-H1993 | 0.898 |
| LCLC-103H | 0.6 |
| Calu-6 | 0.937 |
| IA-LM | 0.497 |
| ChaGo-K-1 | 0.712 |
| A549 | 0.483 |
| NCI-H441 | 0.488 |
| NCI-H1299 | 0.527 |
| NCI-H1563 | 0.599 |
| ABC-1 | 0.654 |

Same assay, conditions: first compound 0.3162 µM

| Cell Line | relative viability |
| --- | --- |
| NCI-H727 | 0.329 |
| NCI-H1650 | 0.569 |
| EBC-1 | 0.196 |
| NCI-H1703 | 0.197 |
| NCI-H1993 | 0.722 |
| LCLC-103H | 0.648 |
| Calu-6 | 0.771 |
| IA-LM | 0.449 |
| ChaGo-K-1 | 1.1 |
| A549 | 0.224 |
| NCI-H441 | 0.512 |
| NCI-H1299 | 0.273 |
| NCI-H1563 | 0.692 |
| ABC-1 | 0.775 |

Compound: CO[C@@H]1[C@H](N(C)C(=O)c2ccccc2)C[C@H]2O[C@]1(C)n1c3ccccc3c3c4c(c5c6ccccc6n2c5c31)C(=O)NC4 [Midostaurin]
Assay: relative viability (nuclei count vs DMSO), 5 days (fraction); higher = more cells survive
Details: 0.01 µM
In short: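 MetaXpress counted nuclei in 4× images of lung cancer cell lines that had been fixed, permeabilised and Hoechst-stained in one step. Before that, cells in 1536-well plates were kept overnight at 37 °C, pinned with five √10-spaced library-drug doses on vehicle-anchored plates, and cultured 5 days without medium change. Viability takes treated-well nuclei over vehicle-well nuclei and uses the median across plates. Plates were accepted only at control CV below 25% and at least one doubling.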

| Cell Line | relative viability |
| --- | --- |
| NCI-H2342 | 0.913 |
| NCI-H1623 | 0.982 |
| NCI-H727 | 1.03 |
| NCI-H1650 | 0.915 |
| EBC-1 | 1.01 |
| NCI-H1703 | 0.958 |
| NCI-H1993 | 0.948 |
